# Reference: PMC7810988, “Inositol pyrophosphates promote the interaction of SPX domains with the coiled-coil motif of PHR transcription factors to regulate plant phosphate homeostasis” (Nature Communications, 2021)
# How the values were obtained:
# Assay type in all cases: binding
# OsSPX4–OsPHR2 = target: T1, OsSPX4–OsPHR2 (Oryza sativa, UniProt Q10B79); experiment: isothermal titration calorimetry
# T1 construct: gene SPX4; OsSPX4 1-321 (cloning sentence prints OsSPX2 1-321, purification OsSPX4 1-321; His-Strep-Sumo tag cleaved) with full-length OsPHR2 1-426 (His-Strep-GB1 tag, TEV cleaved); E. coli; with Protein PHOSPHATE STARVATION RESPONSE 2
# T1 sequence (Q10B79 whole entry): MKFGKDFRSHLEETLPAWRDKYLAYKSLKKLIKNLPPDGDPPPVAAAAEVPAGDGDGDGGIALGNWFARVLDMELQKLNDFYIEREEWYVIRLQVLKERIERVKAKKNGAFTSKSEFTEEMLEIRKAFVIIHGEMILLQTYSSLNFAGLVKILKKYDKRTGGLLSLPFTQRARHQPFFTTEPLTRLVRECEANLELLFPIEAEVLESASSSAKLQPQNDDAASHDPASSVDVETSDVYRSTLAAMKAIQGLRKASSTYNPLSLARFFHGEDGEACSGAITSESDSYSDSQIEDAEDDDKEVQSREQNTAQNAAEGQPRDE
# T1 sequence (Q6Z156 whole entry partner): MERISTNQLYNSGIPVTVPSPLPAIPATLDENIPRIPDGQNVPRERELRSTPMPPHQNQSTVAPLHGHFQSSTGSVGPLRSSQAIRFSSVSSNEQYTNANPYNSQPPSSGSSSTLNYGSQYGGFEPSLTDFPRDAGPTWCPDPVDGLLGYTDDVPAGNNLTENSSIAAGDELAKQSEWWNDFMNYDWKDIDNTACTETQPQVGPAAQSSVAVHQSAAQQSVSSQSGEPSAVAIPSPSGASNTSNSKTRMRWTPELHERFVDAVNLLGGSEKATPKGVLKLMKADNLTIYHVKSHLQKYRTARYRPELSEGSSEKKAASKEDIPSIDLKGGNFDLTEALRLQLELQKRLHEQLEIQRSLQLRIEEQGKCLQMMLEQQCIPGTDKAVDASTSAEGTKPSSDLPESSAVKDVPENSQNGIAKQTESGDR
# AtPHR1^280–360 [1] = target: T2, AtPHR1^280–360 (Arabidopsis thaliana, UniProt Q94CL7, K325A/H328A/R335A); experiment: […] TROSY NMR titration; conditions: 25 mM HEPES pH 7.0, 200 mM NaCl, 0.5 mM TCEP, 30 °C
# T2 construct: gene PHR1; coiled-coil domain fragment, residues 280-360, 6xHis tag cleaved by TEV, 15N,2H-labeled, E. coli
# T2 sequence (Q94CL7 280-360 K325A/H328A/R335A): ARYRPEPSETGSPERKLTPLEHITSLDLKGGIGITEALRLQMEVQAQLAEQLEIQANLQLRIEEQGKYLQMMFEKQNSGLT
# AtPHR1^280–360 [2] = target: T3, AtPHR1^280–360 (Arabidopsis thaliana, UniProt Q94CL7); experiment: […] TROSY NMR titration; conditions: 25 mM HEPES pH 7.0, 200 mM NaCl, 0.5 mM TCEP, 30 °C
# T3 construct: gene PHR1; coiled-coil domain fragment, residues 280-360, 6xHis tag cleaved by TEV, 15N,2H-labeled, E. coli
# T3 sequence (Q94CL7 280-360): as the sequence (Q94CL7 280-360 K325A/H328A/R335A) above, with A46K, A49H, A56R counted along it
Compound,Kd (OsSPX4–OsPHR2) [µM],KD (AtPHR1^280–360 [1]),KD (AtPHR1^280–360 [2])
O=P(O)(O)O[C@H]1[C@@H](OP(=O)(O)O)[C@H](OP(=O)(O)O)[C@@H](OP(=O)(O)OP(=O)(O)O)[C@H](OP(=O)(O)O)[C@H]1OP(=O)(O)O [InsP7],~7,,
O=P(O)(O)O[C@@H]1[C@@H](OP(=O)(O)O)[C@H](OP(=O)(O)OP(=O)(O)O)[C@@H](OP(=O)(O)O)[C@H](OP(=O)(O)OP(=O)(O)O)[C@@H]1OP(=O)(O)O [InsP8],~3,repeated the same set of experiments using the AtPHR1^KHR/A mutant protein,The derived dissociation constant is in the millimolar range and saturation could not be reached
